Paper PMC11062899, “De novo development of small cyclic peptides that are orally bioavailable” (Nature Chemical Biology, 2023)
Where “and” joins values, the source holds several entries; their conditions need not be identical. Equal entries are not always repeated. Where two headings read alike, the source gives them in different places.

Tests used:
porcine pepsin = biological target: T1, porcine pepsin (Sus scrofa, UniProt P00791); assay: Peptide stability in simulated gastric fluid (SGF); assay type: in vitro ADME
T1 construct: 0.32 g of porcine pepsin (Sigma-Aldrich, P7125) was dissolved under gentle agitation; purchased Sigma-Aldrich P7125
T1 sequence (P00791 60-385): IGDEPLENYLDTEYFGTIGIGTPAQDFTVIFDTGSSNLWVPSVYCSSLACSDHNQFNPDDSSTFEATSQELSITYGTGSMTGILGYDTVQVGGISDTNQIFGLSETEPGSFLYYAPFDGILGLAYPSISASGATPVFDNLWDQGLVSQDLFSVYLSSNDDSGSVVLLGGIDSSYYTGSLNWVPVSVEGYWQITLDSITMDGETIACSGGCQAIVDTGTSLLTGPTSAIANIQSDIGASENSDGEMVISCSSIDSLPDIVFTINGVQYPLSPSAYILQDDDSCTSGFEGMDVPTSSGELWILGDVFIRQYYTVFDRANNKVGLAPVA
Procedure, shortened: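 Peptide from a 1 mM DMSO stock was added to fluid pre-warmed at 37 °C. SGF was pH 1.2 NaCl with porcine pepsin (0.32 g per 100 ml), and SIF was pH 6.8 potassium phosphate with porcine pancreatin (1 g per 100 ml). Supernatant peptide was quantified by LC–MS, with residual expressed as T1/T0.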

[1] = Passive artificial membrane permeability (PAMPA)
human α-thrombin = human α-thrombin (Homo sapiens, UniProt P00734); assay: Protease inhibition, Ki for human α-thrombin (fluorogenic substrate Z-Gly-Gly-Arg-AMC); assay type: biochemical; conditions: for Human alpha thrombin inhibition, slope normalized to DMSO: replicates R1-R3
Procedure, shortened: (§1)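 Inhibition was measured as AMC fluorescence from 50 μM substrate, monitored for 30 min at 25 °C, relative to a peptide-free control. Human and rat enzymes were present at 2 nM and 3 nM final, respectively, in 50 mM Tris-HCl pH 7.4, 150 mM NaCl, 10 mM MgCl2, 1 mM CaCl2. Ki derives from fitted IC50 via Cheng–Prusoff.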

[2] = Metabolic stability in rat liver microsomes (RLMs); conditions: rat, microsomes
rat α-thrombin = biological target: T2, rat α-thrombin (Rattus norvegicus, UniProt P18292); assay: Protease inhibition, Ki for rat α-thrombin (fluorogenic substrate Z-Gly-Gly-Arg-AMC); assay type: biochemical; conditions: for Slope normalized to DMSO (proteolytic substrate cleavage over time) / Rat alpha thrombin inhibition, slope normalized to DMSO: replicates R1-R3
T2 construct: rat α-thrombin (Molecular Innovations) were used at final concentrations of 2 nM and 3 nM; purchased Molecular Innovations
Procedure, shortened: as §1

[3] = peptide 1.33E+02 uM, slope of proteolytic substrate cleavage over time

For CN1CCC(=O)NCCSCCS(=O)(=O)CCSC[C@H](NC(=O)c2ccc(Cl)s2)C(=O)N[C@@H](Cc2ccccc2)C1=O [compound 14], the “SGF stability, Residual peptide Average” value (porcine pepsin; after 8 h vs 0 h (TIC), average of R1-R3) was 95.02, the “SGF stability, Residual peptide” value (porcine pepsin; after 8 h vs 0 h (TIC), single replicates R1-R3) was 100.52 and 97.58 and 86.97 and the remaining at 8 h (porcine pepsin; pig, simulated gi fluid, 8 h, 37 °C, pH 1.2, read-out: Proteolytic stability: SGF (8 h) % remaining) was 95 ± 7%. For the same molecule, the “PAMPA permeability: % permeability” value ([1]; 50 μM, 12–18 h, acceptor concentration relative to equilibrium) was 1.27 ± 0.67%, the Papp at 50 μM ([1]; PAMPA, pH 7.4) was 0.0776 ×10⁻⁶ cm/s and the “Permeability% Average” value ([1]; PAMPA, average of R1-R3) was 1.3%. The “Permeability% R1” value ([1]; PAMPA, replicate R1, TIC of top well sample relative to sample at theoretical equilibrium) was 2.04%, the “Permeability% R3” value ([1]; PAMPA, replicate R3, TIC of top well sample relative to sample at theoretical equilibrium) was 1.01% and the IC50 (human α-thrombin; human alpha thrombin, individual replicates R1-R3, read-out: IC50) was 1240 nM and 961 nM and 880 nM. The Ki (human α-thrombin; human alpha thrombin, individual replicates R1-R3, read-out: Ki) was 952 nM and 740 nM and 678 nM, the Ki (human α-thrombin; human alpha thrombin, average of R1-R3, read-out: Ki Average) was 790 nM and the “Human alpha thrombin inhibition, slope normalized to DMSO” value (human α-thrombin; peptide 1.02E-03 uM) was 99.6 and 102.5 and 100.4. For the same molecule, the “Human alpha thrombin inhibition, slope normalized to DMSO” value (human α-thrombin; peptide 1.04E+00 uM) was 62.7 and 63.2 and 64.7, the “Human alpha thrombin inhibition, slope normalized to DMSO” value (human α-thrombin; peptide 1.27E-04 uM) was 101.4 and 100.0 and 103.5 and the “Human alpha thrombin inhibition, slope normalized to DMSO” value (human α-thrombin; peptide 1.30E-01 uM) was 93.3 and 94.2 and 91.8. For the same molecule, the “Human alpha thrombin inhibition, slope normalized to DMSO” value (human α-thrombin; [3]) was 35.6 and 42.1 and 48.0, the “Human alpha thrombin inhibition, slope normalized to DMSO” value (human α-thrombin; peptide 1.63E-02 uM) was 100.3 and 97.9 and 93.0 and the “Human alpha thrombin inhibition, slope normalized to DMSO” value (human α-thrombin; peptide 1.67E+01 uM) was 19.0 and 23.6 and 27.7. The “Human alpha thrombin inhibition, slope normalized to DMSO” value (human α-thrombin; peptide 2.03E-03 uM) was 98.3 and 97.0 and 102.8, the “Human alpha thrombin inhibition, slope normalized to DMSO” value (human α-thrombin; peptide 2.08E+00 uM) was 53.1 and 49.4 and 51.7 and the “Human alpha thrombin inhibition, slope normalized to DMSO” value (human α-thrombin; peptide 2.54E-04 uM) was 100.9 and 99.7. The “Human alpha thrombin inhibition, slope normalized to DMSO” value (human α-thrombin; peptide 2.60E-01 uM) was 86.0 and 78.5 and 87.5, the “Human alpha thrombin inhibition, slope normalized to DMSO” value (human α-thrombin; peptide 3.18E-05 uM) was 105.6 and 95.1 and 100.8 and the “Human alpha thrombin inhibition, slope normalized to DMSO” value (human α-thrombin; peptide 3.26E-02 uM) was 99.1 and 97.3 and 99.5. The “Human alpha thrombin inhibition, slope normalized to DMSO” value (human α-thrombin; peptide 3.33E+01 uM) was 14.9 and 14.8 and 17.4, the “Human alpha thrombin inhibition, slope normalized to DMSO” value (human α-thrombin; peptide 4.07E-03 uM) was 104.1 and 99.4 and 102.2 and the “Human alpha thrombin inhibition, slope normalized to DMSO” value (human α-thrombin; peptide 4.17E+00 uM) was 44.0 and 45.0 and 45.3. For the same molecule, the “Human alpha thrombin inhibition, slope normalized to DMSO” value (human α-thrombin; peptide 5.09E-04 uM) was 89.0 and 97.2 and 100.9, the “Human alpha thrombin inhibition, slope normalized to DMSO” value (human α-thrombin; peptide 5.21E-01 uM) was 80.8 and 75.1 and 78.9 and the “Human alpha thrombin inhibition, slope normalized to DMSO” value (human α-thrombin; peptide 6.36E-05 uM) was 99.9 and 99.1 and 102.2. For the same molecule, the “Human alpha thrombin inhibition, slope normalized to DMSO” value (human α-thrombin; peptide 6.51E-02 uM) was 97.0 and 92.8 and 96.0, the “Human alpha thrombin inhibition, slope normalized to DMSO” value (human α-thrombin; peptide 6.67E+01 uM) was 27.9 and 32.4 and 47.7 and the “Human alpha thrombin inhibition, slope normalized to DMSO” value (human α-thrombin; peptide 8.14E-03 uM) was 99.8 and 97.9 and 99.0. The “Human alpha thrombin inhibition, slope normalized to DMSO” value (human α-thrombin; peptide 8.33E+00 uM) was 29.9 and 28.6 and 29.1, the microsomal CLint ([2]; CL (ul/min/mg protein) R1, RLM CL, replicate R1) was 78.3 µL/min/mg and the microsomal CLint ([2]; CL (ul/min/mg protein) R2, RLM CL, replicate R2) was 132 µL/min/mg. The microsomal CLint ([2]; CL (ul/min/mg protein) R3, RLM CL, replicate R3) was 141 µL/min/mg, the half-life ([2]; Half Life (min) R1, RLM metabolic stability, replicate R1, 0-60 min) was 17.7 min and the half-life ([2]; Half Life (min) R2, RLM metabolic stability, replicate R2, 0-60 min) was 10.5 min. For the same molecule, the half-life ([2]; Half Life (min) R3, RLM metabolic stability, replicate R3, 0-60 min) was 9.82 min, the microsomal CLint ([2]; Metabolic stability: RLM CL (ul/min/mg), RLMs, mean and SD, three measurements) was 117 ± 28 µL/min/mg and the microsomal CLint ([2]; Metabolic stability: RLM CL R1, summary table, rounded, replicate R1) was 78.3 µL/min/mg. The microsomal CLint ([2]; Metabolic stability: RLM CL R2, summary table, rounded, replicate R2) was 132 µL/min/mg, the microsomal CLint ([2]; Metabolic stability: RLM CL R3, summary table, rounded, replicate R3) was 141 µL/min/mg and the half-life ([2]; pH 7.4, Metabolic stability: Half life T1/2 (min), RLMs, mean and SD, three measurements) was 12.7 ± 3.6 min. The microsomal CLint ([2]; pH 7.4, Metabolic stability: RLM CL Average, summary table, average of R1-R3) was 117 µL/min/mg, the Ki (rat α-thrombin; average of R1-R3, read-out: Ki Average) was 357 nM and the “Slope normalized to DMSO (proteolytic substrate cleavage over time)” value (rat α-thrombin; peptide 1.02E-03 uM) was 100.5 and 96.1 and 105.7. For the same molecule, the “Slope normalized to DMSO (proteolytic substrate cleavage over time)” value (rat α-thrombin; peptide 1.04E+00 uM) was 47.3 and 45.5 and 46.2, the “Slope normalized to DMSO (proteolytic substrate cleavage over time)” value (rat α-thrombin; peptide 1.27E-04 uM) was 98.2 and 95.5 and 104.0 and the “Slope normalized to DMSO (proteolytic substrate cleavage over time)” value (rat α-thrombin; peptide 1.30E-01 uM) was 88.1 and 88.0 and 95.1. For the same molecule, the “Rat alpha thrombin inhibition, slope normalized to DMSO” value (rat α-thrombin; [3]) was 29.3 and 31.0 and 24.5, the “Slope normalized to DMSO (proteolytic substrate cleavage over time)” value (rat α-thrombin; peptide 1.63E-02 uM) was 95.3 and 90.7 and 94.2 and the “Rat alpha thrombin inhibition, slope normalized to DMSO” value (rat α-thrombin; peptide 1.67E+01 uM) was 11.1 and 9.5 and 16.8. For the same molecule, the “Slope normalized to DMSO (proteolytic substrate cleavage over time)” value (rat α-thrombin; peptide 2.03E-03 uM) was 96.6 and 95.4 and 92.0, the “Rat alpha thrombin inhibition, slope normalized to DMSO” value (rat α-thrombin; peptide 2.08E+00 uM) was 34.7 and 33.7 and 44.2 and the “Slope normalized to DMSO (proteolytic substrate cleavage over time)” value (rat α-thrombin; peptide 2.54E-04 uM) was 95.8 (2×) and 100.3. For the same molecule, the “Slope normalized to DMSO (proteolytic substrate cleavage over time)” value (rat α-thrombin; peptide 2.60E-01 uM) was 75.1 and 76.7 and 74.0, the “Slope normalized to DMSO (proteolytic substrate cleavage over time)” value (rat α-thrombin; peptide 3.18E-05 uM) was 100.9 and 96.6 and 106.2 and the “Slope normalized to DMSO (proteolytic substrate cleavage over time)” value (rat α-thrombin; peptide 3.26E-02 uM) was 100.1 and 92.2 and 91.8. The “Rat alpha thrombin inhibition, slope normalized to DMSO” value (rat α-thrombin; peptide 3.33E+01 uM) was 8.8 and 9.0 and 13.6, the “Slope normalized to DMSO (proteolytic substrate cleavage over time)” value (rat α-thrombin; peptide 4.07E-03 uM) was 100.3 and 98.9 and 95.8 and the “Rat alpha thrombin inhibition, slope normalized to DMSO” value (rat α-thrombin; peptide 4.17E+00 uM) was 29.3 and 26.2 and 29.7. The “Slope normalized to DMSO (proteolytic substrate cleavage over time)” value (rat α-thrombin; peptide 5.09E-04 uM) was 99.8 and 96.7 and 105.4, the “Slope normalized to DMSO (proteolytic substrate cleavage over time)” value (rat α-thrombin; peptide 5.21E-01 uM) was 62.1 and 60.1 and 59.5 and the “Slope normalized to DMSO (proteolytic substrate cleavage over time)” value (rat α-thrombin; peptide 6.36E-05 uM) was 99.5 and 99.0 and 105.5. The “Slope normalized to DMSO (proteolytic substrate cleavage over time)” value (rat α-thrombin; peptide 6.51E-02 uM) was 92.1 and 90.2 and 94.2, the “Rat alpha thrombin inhibition, slope normalized to DMSO” value (rat α-thrombin; peptide 6.67E+01 uM) was 22.0 and 23.9 and 12.4 and the “Slope normalized to DMSO (proteolytic substrate cleavage over time)” value (rat α-thrombin; peptide 8.14E-03 uM) was 88.9 and 94.1 and 99.5. The “Rat alpha thrombin inhibition, slope normalized to DMSO” value (rat α-thrombin; peptide 8.33E+00 uM) was 16.6 and 15.4 and 23.2, the IC50 (rat α-thrombin; single replicates R1-R3, read-out: IC50) was 640 nM and 631 nM and 666 nM and the Ki (rat α-thrombin; single replicates R1-R3, read-out: Ki) was 354 nM and 349 nM and 368 nM.
